Test results published in PubChem BioAssay AID248 (DTP/NCI, 2004).
Where “and” joins values, the source holds several entries; their conditions need not be identical. Equal entries are not always repeated. Toxic doses and inconclusive results are not listed.

Test system: L1210 leukemia ip in BDF1 mice, survival T/C
Assay: NCI In Vivo Anticancer Drug Screen. Data for tumor model L1210 Leukemia (intraperitoneal) in B6D2F1 (BDF1) mice
Conditions: higher = longer survival
Method in brief: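 Each compound was tested against a transplantable tumor grown in mice. The endpoint was survival, with treated animals benchmarked against vehicle controls as a simple ratio.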

COc1cc([C@@H]2c3cc4c(cc3[C@@H](OC3OC5COC(C)OC5C(O)C3O)[C@H]3COC(=O)[C@H]23)OCO4)cc(OC)c1O (stereo not given in full)
T/C (endpoint: mean survival time, dose: 1.8 mg/kg/injection, schedule: Q03HX016 (ip), vehicle: saline): 292 % of control
T/C (endpoint: mean survival time, dose: 1.8 mg/kg/injection, schedule: Q03HX024 (ip), vehicle: saline): 315 % of control
T/C (endpoint: mean survival time, dose: 2.0 mg/kg/injection, schedule: Q01DX009 (ip), vehicle: Klucel (hydroxypropylcellulose) (HPC)): 161 % of control and 172 % of control
T/C (endpoint: mean survival time, dose: 2.7 mg/kg/injection, schedule: Q03HX016 (ip), vehicle: saline): 510 % of control
T/C (endpoint: mean survival time, dose: 2.7 mg/kg/injection, schedule: Q03HX024 (ip), vehicle: saline): 600 % of control
T/C (endpoint: mean survival time, dose: 4.0 mg/kg/injection, schedule: Q01DX001 (sc), vehicle: Klucel (hydroxypropylcellulose) (HPC)): 97 % of control
T/C (endpoint: mean survival time, dose: 4.0 mg/kg/injection, schedule: Q01DX001 (sc), vehicle: clinical formulation): 102 % of control
T/C (endpoint: mean survival time, dose: 4.0 mg/kg/injection, schedule: Q01DX009 (ip), vehicle: Klucel (hydroxypropylcellulose) (HPC)): 104 % of control and 196 % of control and 266 % of control
T/C (endpoint: mean survival time, dose: 4.0 mg/kg/injection, schedule: Q01DX009 (sc), vehicle: clinical formulation): 183 % of control
T/C (endpoint: mean survival time, dose: 4.0 mg/kg/injection, schedule: Q03HX016 (ip), vehicle: saline): 409 % of control
T/C (endpoint: mean survival time, dose: 4.0 mg/kg/injection, schedule: Q03HX016 (oral), vehicle: Klucel (hydroxypropylcellulose) (HPC)): 105 % of control
T/C (endpoint: mean survival time, dose: 4.0 mg/kg/injection, schedule: Q03HX024 (ip), vehicle: saline): 568 % of control
T/C (endpoint: mean survival time, dose: 4.5 mg/kg/injection, schedule: Q03HX024 (ip), vehicle: saline): 409 % of control
T/C (endpoint: mean survival time, dose: 6.0 mg/kg/injection, schedule: Q03HX016 (ip), vehicle: saline): 154 % of control
T/C (endpoint: mean survival time, dose: 8.0 mg/kg/injection, schedule: Q01DX001 (sc), vehicle: Klucel (hydroxypropylcellulose) (HPC)): 103 % of control
T/C (endpoint: mean survival time, dose: 8.0 mg/kg/injection, schedule: Q01DX001 (sc), vehicle: clinical formulation): 106 % of control
T/C (endpoint: mean survival time, dose: 8.0 mg/kg/injection, schedule: Q01DX009 (sc), vehicle: clinical formulation): 180 % of control
T/C (endpoint: mean survival time, dose: 8.0 mg/kg/injection, schedule: Q03HX016 (oral), vehicle: Klucel (hydroxypropylcellulose) (HPC)): 105 % of control
T/C (endpoint: mean survival time, dose: 8.0 mg/kg/injection, schedule: Q04DX003 (ip), vehicle: Klucel (hydroxypropylcellulose) (HPC)): 225 % of control
T/C (endpoint: mean survival time, dose: 12.0 mg/kg/injection, schedule: Q03DX003 (ip), vehicle: saline): 319 % of control
T/C (endpoint: mean survival time, dose: 12.0 mg/kg/injection, schedule: Q04DX003 (ip), vehicle: saline): 213 % of control
T/C (endpoint: mean survival time, dose: 16.0 mg/kg/injection, schedule: Q01DX001 (sc), vehicle: Klucel (hydroxypropylcellulose) (HPC)): 106 % of control
T/C (endpoint: mean survival time, dose: 16.0 mg/kg/injection, schedule: Q01DX001 (sc), vehicle: clinical formulation): 117 % of control
T/C (endpoint: mean survival time, dose: 16.0 mg/kg/injection, schedule: Q01DX009 (sc), vehicle: Klucel (hydroxypropylcellulose) (HPC)): 208 % of control
T/C (endpoint: mean survival time, dose: 16.0 mg/kg/injection, schedule: Q01DX009 (sc), vehicle: clinical formulation): 187 % of control
T/C (endpoint: mean survival time, dose: 16.0 mg/kg/injection, schedule: Q03HX016 (oral), vehicle: Klucel (hydroxypropylcellulose) (HPC)): 105 % of control
T/C (endpoint: mean survival time, dose: 16.0 mg/kg/injection, schedule: Q08DX002 (ip), vehicle: Klucel (hydroxypropylcellulose) (HPC)): 157 % of control
T/C (endpoint: mean survival time, dose: 18.0 mg/kg/injection, schedule: Q03DX003 (ip), vehicle: saline): 395 % of control
T/C (endpoint: mean survival time, dose: 18.0 mg/kg/injection, schedule: Q04DX003 (ip), vehicle: saline): 372 % of control
T/C (endpoint: mean survival time, dose: 27.0 mg/kg/injection, schedule: Q03DX003 (ip), vehicle: saline): 552 % of control
T/C (endpoint: mean survival time, dose: 27.0 mg/kg/injection, schedule: Q04DX003 (ip), vehicle: saline): 506 % of control
T/C (endpoint: mean survival time, dose: 32.0 mg/kg/injection, schedule: Q01DX001 (sc), vehicle: Klucel (hydroxypropylcellulose) (HPC)): 115 % of control
T/C (endpoint: mean survival time, dose: 32.0 mg/kg/injection, schedule: Q01DX009 (oral), vehicle: Klucel (hydroxypropylcellulose) (HPC)): 109 % of control
T/C (endpoint: mean survival time, dose: 32.0 mg/kg/injection, schedule: Q03HX016 (oral), vehicle: Klucel (hydroxypropylcellulose) (HPC)): 119 % of control
T/C (endpoint: mean survival time, dose: 32.0 mg/kg/injection, schedule: Q04DX003 (oral), vehicle: Klucel (hydroxypropylcellulose) (HPC)): 109 % of control
T/C (endpoint: mean survival time, dose: 32.0 mg/kg/injection, schedule: Q08DX002 (ip), vehicle: Klucel (hydroxypropylcellulose) (HPC)): 338 % of control
T/C (endpoint: mean survival time, dose: 40.0 mg/kg/injection, schedule: Q03DX003 (ip), vehicle: saline): 562 % of control
T/C (endpoint: mean survival time, dose: 40.0 mg/kg/injection, schedule: Q04DX003 (ip), vehicle: saline): 584 % of control
T/C (endpoint: mean survival time, dose: 50.0 mg/kg/injection, schedule: Q01DX001 (ip), vehicle: Klucel (hydroxypropylcellulose) (HPC)): 276 % of control
T/C (endpoint: mean survival time, dose: 50.0 mg/kg/injection, schedule: Q01DX001 (ip), vehicle: saline): 116 % of control
T/C (endpoint: mean survival time, dose: 60.0 mg/kg/injection, schedule: Q03DX003 (ip), vehicle: saline): 86 % of control
T/C (endpoint: mean survival time, dose: 64.0 mg/kg/injection, schedule: Q01DX001 (oral), vehicle: Klucel (hydroxypropylcellulose) (HPC)): 103 % of control
T/C (endpoint: mean survival time, dose: 64.0 mg/kg/injection, schedule: Q01DX001 (sc), vehicle: clinical formulation): 120 % of control
T/C (endpoint: mean survival time, dose: 64.0 mg/kg/injection, schedule: Q03HX016 (oral), vehicle: Klucel (hydroxypropylcellulose) (HPC)): 108 % of control
T/C (endpoint: mean survival time, dose: 64.0 mg/kg/injection, schedule: Q04DX003 (oral), vehicle: Klucel (hydroxypropylcellulose) (HPC)): 123 % of control
T/C (endpoint: mean survival time, dose: 64.0 mg/kg/injection, schedule: Q08DX002 (ip), vehicle: Klucel (hydroxypropylcellulose) (HPC)): 417 % of control
T/C (endpoint: mean survival time, dose: 100.0 mg/kg/injection, schedule: Q01DX001 (ip), vehicle: Klucel (hydroxypropylcellulose) (HPC)): 448 % of control
T/C (endpoint: mean survival time, dose: 100.0 mg/kg/injection, schedule: Q01DX001 (ip), vehicle: saline): 176 % of control
T/C (endpoint: mean survival time, dose: 128.0 mg/kg/injection, schedule: Q01DX001 (oral), vehicle: Klucel (hydroxypropylcellulose) (HPC)): 104 % of control and 106 % of control
T/C (endpoint: mean survival time, dose: 128.0 mg/kg/injection, schedule: Q01DX001 (oral), vehicle: clinical formulation): 109 % of control
T/C (endpoint: mean survival time, dose: 128.0 mg/kg/injection, schedule: Q03HX016 (oral), vehicle: Klucel (hydroxypropylcellulose) (HPC)): 118 % of control
T/C (endpoint: mean survival time, dose: 128.0 mg/kg/injection, schedule: Q08DX002 (ip), vehicle: Klucel (hydroxypropylcellulose) (HPC)): 119 % of control
T/C (endpoint: mean survival time, dose: 256.0 mg/kg/injection, schedule: Q01DX001 (oral), vehicle: Klucel (hydroxypropylcellulose) (HPC)): 104 % of control and 110 % of control
T/C (endpoint: mean survival time, dose: 256.0 mg/kg/injection, schedule: Q01DX001 (oral), vehicle: clinical formulation): 106 % of control
T/C (endpoint: mean survival time, dose: 256.0 mg/kg/injection, schedule: Q01DX001 (sc), vehicle: Klucel (hydroxypropylcellulose) (HPC)): 166 % of control
T/C (endpoint: mean survival time, dose: 256.0 mg/kg/injection, schedule: Q01DX001 (sc), vehicle: clinical formulation): 188 % of control
T/C (endpoint: mean survival time, dose: 256.0 mg/kg/injection, schedule: Q01DX009 (oral), vehicle: Klucel (hydroxypropylcellulose) (HPC)): 103 % of control
T/C (endpoint: mean survival time, dose: 512.0 mg/kg/injection, schedule: Q01DX001 (oral), vehicle: Klucel (hydroxypropylcellulose) (HPC)): 106 % of control and 118 % of control
T/C (endpoint: mean survival time, dose: 512.0 mg/kg/injection, schedule: Q01DX001 (oral), vehicle: clinical formulation): 165 % of control
T/C (endpoint: mean survival time, dose: 512.0 mg/kg/injection, schedule: Q01DX009 (oral), vehicle: Klucel (hydroxypropylcellulose) (HPC)): 91 % of control
T/C (endpoint: mean survival time, dose: 1024.0 mg/kg/injection, schedule: Q01DX001 (oral), vehicle: Klucel (hydroxypropylcellulose) (HPC)): 111 % of control
T/C (endpoint: median survival time, dose: 2.0 mg/kg/injection, schedule: Q01DX009 (ip), vehicle: saline): 172 % of control
T/C (endpoint: median survival time, dose: 2.0 mg/kg/injection, schedule: Q01DX009 (sc), vehicle: Klucel (hydroxypropylcellulose) (HPC)): 121 % of control
T/C (endpoint: median survival time, dose: 4.0 mg/kg/injection, schedule: Q01DX009 (ip), vehicle: saline): 188 % of control
T/C (endpoint: median survival time, dose: 8.0 mg/kg/injection, schedule: Q01DX009 (ip), vehicle: saline): 611 % of control
T/C (endpoint: median survival time, dose: 8.0 mg/kg/injection, schedule: Q01DX009 (sc), vehicle: Klucel (hydroxypropylcellulose) (HPC)): 168 % of control
T/C (endpoint: median survival time, dose: 16.0 mg/kg/injection, schedule: Q01DX009 (sc), vehicle: Klucel (hydroxypropylcellulose) (HPC)): 110 % of control
T/C (endpoint: median survival time, dose: 32.0 mg/kg/injection, schedule: Q01DX009 (sc), vehicle: Klucel (hydroxypropylcellulose) (HPC)): 89 % of control

CN(C)CCCN1c2cc(Cl)ccc2Sc2ccc(Cl)cc21
T/C (endpoint: mean survival time, dose: 100.0 mg/kg/injection, schedule: Q04DX002 (ip), vehicle: Klucel (hydroxypropylcellulose) (HPC)): 122 % of control
T/C (endpoint: mean survival time, dose: 200.0 mg/kg/injection, schedule: Q04DX002 (ip), vehicle: Klucel (hydroxypropylcellulose) (HPC)): 108 % of control
